{"source": "ChEMBL document CHEMBL1201862", "about": "“PubChem BioAssay data set” (2004)", "key": {"[1]": {"experiment": "off-target signal loss in HeLa-CEM21 co-culture – HeLa F-luc CTL cells, cherry-picked, counter-screen for HIV-1 Env fusion inhibitor project, dose response (AID 652040);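 note: potency for signal decrease marking cytotoxic or nonspecific inhibition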", "type": "functional, cell-based"}, "[2]": {"experiment": "ZM109 Env clade C HIV-1 fusion inhibitors, dose response, HeLa effector, CEM target cells, luciferase, cherry-pick (AID 652058)", "type": "functional, cell-based"}, "[3]": {"experiment": "inhibitors of HIV Env-driven cell fusion, dose response, cherry-pick (AID 652057)", "type": "functional, cell-based"}, "[4]": {"experiment": "inhibitors of clade B AD8 Env fusion, dose response, cell-based, cherry-pick (AID 652062);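 note: potency is for inhibitors of fusion seen as a drop in luminescence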", "type": "functional"}, "[5]": {"experiment": "control 3'UTR Renilla luciferase suppression, dose response, counter-screen for Shn3 inhibitor project, cell-based, Clone20-Shn3RL, cherry-picked (AID 624133)", "type": "functional"}, "[6]": {"experiment": "Shn3 3'UTR reporter inhibitors, dose response, cell-based, Clone20 osteoblasts, firefly luciferase, cherry-picked (AID 624132)", "type": "functional"}, "[7]": {"experiment": "HepG2 cell cytotoxicity, dose response, cytotoxicity control for Shn3 inhibitor project, CellTiter-Glo, cherry-picked (AID 624134)", "type": "functional, cell-based"}, "[8]": {"biological_target": "Heat shock protein HSP 90-alpha (Homo sapiens, UniProt P07900)", "type": "functional, organism-based"}, "[9]": {"biological_target": "Paired box protein Pax-8 (Homo sapiens, UniProt Q06710)", "sequence (Q06710 whole entry)": "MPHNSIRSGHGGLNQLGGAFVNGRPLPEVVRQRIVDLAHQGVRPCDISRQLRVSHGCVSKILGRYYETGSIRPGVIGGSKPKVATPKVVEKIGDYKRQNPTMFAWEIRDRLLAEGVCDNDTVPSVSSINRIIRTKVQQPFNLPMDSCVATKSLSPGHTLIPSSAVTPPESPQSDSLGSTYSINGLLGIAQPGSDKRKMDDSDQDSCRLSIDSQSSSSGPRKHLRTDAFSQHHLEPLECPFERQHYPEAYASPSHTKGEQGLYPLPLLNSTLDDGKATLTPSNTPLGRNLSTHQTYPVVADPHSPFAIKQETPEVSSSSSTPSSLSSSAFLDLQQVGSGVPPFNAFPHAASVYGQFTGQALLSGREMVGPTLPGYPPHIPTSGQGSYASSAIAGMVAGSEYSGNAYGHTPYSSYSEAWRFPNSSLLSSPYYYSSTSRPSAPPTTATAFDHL", "experiment": "inhibitors of PAX8-driven TPO luciferase reporter, dose response, RMG-I cells, cherry-pick (AID 687027);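 note: luciferase reporter driven by Pax8 target thyroperoxidase promoter measured by SteadyGlo luminescence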", "type": "functional, cell-based"}, "[10]": {"experiment": "cytotoxicity in OVCAR8 ovarian cancer cells, dose response, PAX8 project, cell-based, plate reader, dry powder samples (AID 743197)", "type": "functional", "settings": "OVCAR-8"}, "[11]": {"biological_target": "5-hydroxytryptamine receptor 2A (Mus musculus, UniProt P35363)", "sequence (P35363 whole entry)": "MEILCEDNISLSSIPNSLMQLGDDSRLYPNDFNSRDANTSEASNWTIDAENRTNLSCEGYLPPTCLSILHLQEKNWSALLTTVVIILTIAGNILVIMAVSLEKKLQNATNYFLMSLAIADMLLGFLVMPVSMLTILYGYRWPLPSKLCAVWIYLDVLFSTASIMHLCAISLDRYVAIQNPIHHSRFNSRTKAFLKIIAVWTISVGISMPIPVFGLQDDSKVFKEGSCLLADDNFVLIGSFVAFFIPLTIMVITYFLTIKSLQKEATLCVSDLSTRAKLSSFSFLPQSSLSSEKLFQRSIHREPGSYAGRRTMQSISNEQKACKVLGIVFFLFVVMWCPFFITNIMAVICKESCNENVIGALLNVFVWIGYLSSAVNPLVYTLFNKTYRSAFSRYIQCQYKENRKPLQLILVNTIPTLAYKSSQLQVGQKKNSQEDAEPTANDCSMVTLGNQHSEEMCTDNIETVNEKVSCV", "type": "functional, cell-based"}, "[12]": {"biological_target": "FAD-linked sulfhydryl oxidase ALR (Homo sapiens, UniProt P55789)", "sequence (P55789 whole entry)": "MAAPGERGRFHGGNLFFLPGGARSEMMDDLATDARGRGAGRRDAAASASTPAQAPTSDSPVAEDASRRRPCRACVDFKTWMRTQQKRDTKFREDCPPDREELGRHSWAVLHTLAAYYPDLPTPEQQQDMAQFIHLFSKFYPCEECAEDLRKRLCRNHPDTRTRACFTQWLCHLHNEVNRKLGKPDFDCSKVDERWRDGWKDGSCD", "experiment": "inhibitors of human ALR sulfhydryl oxidase, dose response, biochemical, H2O2 detection, luminescence, cherry-pick (AID 493248)"}, "[13]": {"biological_target": "Mu-type opioid receptor (Homo sapiens, UniProt P35372)", "sequence (P35372 whole entry)": "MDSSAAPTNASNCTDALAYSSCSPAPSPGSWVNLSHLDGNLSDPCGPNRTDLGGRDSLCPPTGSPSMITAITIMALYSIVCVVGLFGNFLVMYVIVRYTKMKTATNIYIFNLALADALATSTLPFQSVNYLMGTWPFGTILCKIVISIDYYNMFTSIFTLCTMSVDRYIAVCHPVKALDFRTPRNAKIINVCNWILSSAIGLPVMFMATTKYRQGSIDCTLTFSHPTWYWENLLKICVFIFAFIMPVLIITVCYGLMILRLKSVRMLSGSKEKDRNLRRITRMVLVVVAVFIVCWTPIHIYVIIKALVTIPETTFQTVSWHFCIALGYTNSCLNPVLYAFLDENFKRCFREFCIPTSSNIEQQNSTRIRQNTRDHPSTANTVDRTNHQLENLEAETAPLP", "type": "functional, cell-based"}, "[14]": {"experiment": "HepG2 cell cytotoxicity, dose response, cytotoxicity control, plate reader, cherry-pick, antagonist series (AID 743416)", "type": "functional, cell-based"}, "[15]": {"experiment": "HEK293 cell cytotoxicity, dose response, cytotoxicity control, plate reader, cherry-picked samples (AID 743446)", "type": "functional, cell-based"}, "[16]": {"experiment": "A549 cell cytotoxicity, dose response, cytotoxicity control, plate reader, cherry-pick, antagonist series (AID 743412)", "type": "functional, cell-based"}, "[17]": {"experiment": "MC4R antagonists, dose response, counter-screen for LGR2 antagonist project, cell-based, plate reader, cherry pick (AID 743444);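 note: transfected HEK 293 cells stimulated with alpha-MSH peptide; potency of inhibitors of the alpha-MSH evoked signal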", "type": "functional"}, "[18]": {"experiment": "LGR2 antagonists, dose response, cell-based, HEK293, CRE-luciferase reporter, cherry pick, set 2 (AID 743343);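 note: transfected cells were stimulated with diluted bursicon conditioned medium after compound addition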", "type": "functional"}, "[19]": {"experiment": "human group III sPLA2 inhibitors, dose response, biochemical, QFRET, IC50 (AID 743457);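 note: green fluorescence rise as the enzyme cleaves BODIPY PC-A2 in liposomes; potency for inhibition of the enzyme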"}, "[20]": {"biological_target": "T1, Histone-lysine N-methyltransferase NSD2 (Homo sapiens, UniProt O96028)", "T1 sequence (O96028 whole entry)": "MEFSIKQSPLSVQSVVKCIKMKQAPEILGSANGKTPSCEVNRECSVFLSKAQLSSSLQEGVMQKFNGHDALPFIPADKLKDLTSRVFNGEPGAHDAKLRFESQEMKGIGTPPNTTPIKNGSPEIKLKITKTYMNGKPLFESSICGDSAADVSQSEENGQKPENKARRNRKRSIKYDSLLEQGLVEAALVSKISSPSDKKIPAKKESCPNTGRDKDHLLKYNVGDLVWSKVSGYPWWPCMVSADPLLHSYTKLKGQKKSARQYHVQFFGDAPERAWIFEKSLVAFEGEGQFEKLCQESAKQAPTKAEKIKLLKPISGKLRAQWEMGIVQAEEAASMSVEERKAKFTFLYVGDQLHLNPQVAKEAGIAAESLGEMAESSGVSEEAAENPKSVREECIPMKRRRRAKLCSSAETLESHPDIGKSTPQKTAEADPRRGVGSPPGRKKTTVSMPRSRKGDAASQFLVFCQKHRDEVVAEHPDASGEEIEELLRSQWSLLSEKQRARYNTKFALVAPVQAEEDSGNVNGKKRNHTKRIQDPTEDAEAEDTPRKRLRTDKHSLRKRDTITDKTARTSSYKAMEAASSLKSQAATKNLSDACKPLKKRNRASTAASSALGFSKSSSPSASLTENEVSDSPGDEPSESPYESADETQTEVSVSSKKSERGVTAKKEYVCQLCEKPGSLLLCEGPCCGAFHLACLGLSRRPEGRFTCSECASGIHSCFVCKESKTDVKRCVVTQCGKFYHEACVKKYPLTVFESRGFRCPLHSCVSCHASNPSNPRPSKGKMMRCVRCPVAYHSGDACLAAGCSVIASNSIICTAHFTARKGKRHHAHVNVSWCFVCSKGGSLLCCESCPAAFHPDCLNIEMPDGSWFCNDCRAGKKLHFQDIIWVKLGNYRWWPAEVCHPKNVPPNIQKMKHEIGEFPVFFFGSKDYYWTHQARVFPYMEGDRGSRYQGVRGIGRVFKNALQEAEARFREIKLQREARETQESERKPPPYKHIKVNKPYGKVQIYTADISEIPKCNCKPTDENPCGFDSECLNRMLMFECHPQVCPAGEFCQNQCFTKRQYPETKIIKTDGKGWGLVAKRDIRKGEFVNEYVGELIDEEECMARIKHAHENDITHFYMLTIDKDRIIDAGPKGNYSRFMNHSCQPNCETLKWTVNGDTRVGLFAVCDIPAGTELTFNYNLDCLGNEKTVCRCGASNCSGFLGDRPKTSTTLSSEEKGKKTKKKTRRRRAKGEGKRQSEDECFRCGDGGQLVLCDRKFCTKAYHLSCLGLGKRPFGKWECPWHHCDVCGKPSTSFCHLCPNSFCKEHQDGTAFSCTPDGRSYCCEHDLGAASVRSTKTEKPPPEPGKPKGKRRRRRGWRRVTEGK", "type": "biochemical"}, "[21]": {"biological_target": "Nonstructural protein 1 (Influenza A virus, UniProt Q194T2)", "sequence (Q194T2 whole entry)": "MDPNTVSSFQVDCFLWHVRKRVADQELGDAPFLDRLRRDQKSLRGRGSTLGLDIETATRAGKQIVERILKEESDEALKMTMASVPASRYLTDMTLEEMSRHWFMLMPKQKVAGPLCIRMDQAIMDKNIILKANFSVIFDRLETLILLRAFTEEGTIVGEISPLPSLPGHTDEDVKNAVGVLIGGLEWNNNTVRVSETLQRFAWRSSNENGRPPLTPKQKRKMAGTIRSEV", "type": "functional, Influenza A virus (A/California/07/2009(H1N1))"}}, "note": "Calls of active or inactive are those of the source."}
{"smiles": "C[C@@]12C(=O)N(Cc3ccccc3)CC(=O)N1[C@H]1c3ccccc3OC[C@@H]1[C@@H]2c1ccccc1", "values": [{"measurement": "AC50", "setting": "[1]", "result": "2.27 µM (active)"}, {"measurement": "AC50", "setting": "[2]", "result": "1.68 µM (active)"}, {"measurement": "AC50", "setting": "[3]", "result": "1.65 µM (active)"}, {"measurement": "AC50", "setting": "[4]", "result": "6.27 µM (active)"}]}
{"smiles": "CCOC(=O)N1CCN(C(=O)c2ccc3c(c2)N(Cc2ccc(C)cc2)CCS3)CC1", "values": [{"measurement": "AC50", "setting": "[5]", "result": "2.31 µM (active)"}, {"measurement": "AC50", "setting": "[6]", "result": "6 µM (active)"}, {"measurement": "AC50", "setting": "[7]", "result": "> 70 µM (inactive)"}]}
{"smiles": "O=C1C2C3C=CC(CNS(=O)(=O)c4ccccc4[N+](=O)[O-])(O3)C2C(=O)N1c1ccccc1", "note": "(centres undefined)", "values": [{"measurement": "AC50", "setting": "[8]", "result": "25.5 µM (active)"}]}
{"smiles": "C[C@H]1CCCCO[C@@H](CN(C)Cc2ccncc2)[C@@H](C)CN([C@@H](C)CO)C(=O)c2cc(NC(=O)Nc3ccc(C(F)(F)F)cc3)ccc2O1", "values": [{"measurement": "AC50", "setting": "[9]", "result": "7.3 µM (active)"}, {"measurement": "AC50", "setting": "[10]", "result": "> 70 µM (inactive)"}]}
{"smiles": "C=CCN1CCc2c(cc(O)c(O)c2Cl)C(c2ccccc2)C1", "note": "(centres undefined)", "values": [{"measurement": "EC50", "setting": "[11]", "result": "0.203 µM (active)"}, {"measurement": "AC50", "setting": "[12]", "result": "4.74 µM (active)"}, {"measurement": "EC50", "setting": "[13]", "result": "92.4 µM (inactive)"}]}
{"smiles": "O=C(c1ccco1)N1CCN(Cc2ccccc2Br)CC1", "values": [{"measurement": "EC50", "setting": "[11]", "result": "5.91 µM (active)"}, {"measurement": "EC50", "setting": "[13]", "result": "92.5 µM (inactive)"}]}
{"smiles": "Oc1nc2ccccc2n1C1CCN(C(CCc2ccccc2)c2nnnn2C2CCCC2)CC1", "note": "(centres undefined)", "values": [{"measurement": "AC50", "setting": "[14]", "result": "22.4 µM (active)"}, {"measurement": "AC50", "setting": "[15]", "result": "14.1 µM (active)"}, {"measurement": "AC50", "setting": "[16]", "result": "13.3 µM (active)"}, {"measurement": "AC50", "setting": "[17]", "result": "18.4 µM (active)"}, {"measurement": "AC50", "setting": "[18]", "result": "20.3 µM (active)"}]}
{"smiles": "CN(C1=C(N2CCOCC2)C(=O)c2ccccc2C1=O)c1ccccc1", "values": [{"measurement": "IC50", "setting": "[19]", "result": "> 122 µM (inactive)"}, {"measurement": "AC50", "setting": "[20]", "result": "4.86 µM (active)"}, {"measurement": "IC50", "setting": "[21]", "result": "11.9 µM (active)"}]}
{"smiles": "Cc1cc(N2CCCC2)ccc1NC(=O)COc1cccc(C(F)(F)F)c1", "values": [{"measurement": "IC50", "setting": "[19]", "result": "> 122 µM (inactive)"}]}
